Source: US4200639A, “Sesbanine and the use thereof in treating leukemic tumors” (The United States of America as represented by the …, priority 1979, dated 1980)
≈ marks a conversion by molar mass, not a printed value.

Legend:
KB Cell = KB Cell Culture Screen (NCI Protocol 1.600); assay type: cell-based
Text: The chemotherapeutic activities of the fractions obtained in the isolation procedure may be determined by a KB Cell Culture Screen in accordance with the National Cancer Institute Protocol 1.600 [Geran et al., Cancer Chemother.

[1] = system: lymphocytic leukemia cells of the strain P388 (PS tumors); test: Survival of mice implanted with lymphocytic leukemia P388 (NCI Protocol 1.200); details: mouse, in vivo
Protocol: The effectiveness of alkaloid compounds against lymphocytic leukemia cells of the strain P388 (PS tumors) implanted in mice is another method of determining activity. These assays are made according to the National Cancer Institute Protocol 1.200 described in Geran et al. referred to above. […] Starting 24 hr. after the tumor implantation, previously determined dosages of each compound were injected intraperitoneally once a day for 9 days. Survival time of treated leukemic mice is compared to that of untreated leukemic mice (T/C×100). A T/C value of 100% indicated no activity.
^2 All mice were male, CD2 F1.
^3 The injection vehicle was saline.
^4 One intraperitoneal injection per day for 9 days.

Which IC50 (KB Cell; Homo sapiens, KB, 72 h, 3 days after drug addition, active if ED 50 ≤30 μg./ml., read-out: ED 50 (dose that inhibits growth to 50% of control growth)) does the source give for `O=C1NC(=O)[C@@]2(CC[C@@H](O)C2)c2ccncc21` (relative stereo) [sesbanine, trans-3-hydroxyspiro[cyclopentane-1,4'(1'H)[2,7]naphthyridine]-1',3'(2'H)-dione] here?
Its IC50 is 0.047 µg/mL (≈ 0.202 µM).

And the “activity of fractions during isolation (in words)” value (KB Cell; among fractions of the respective separation step, Example 1)?
Its value is “the most active”.

And the “activity against leukemia in animals (in words)” value [1]?
The value was “potent activity against leukemia in animals”.
